{
  "source": "ChEMBL document CHEMBL1134116",
  "about": "“Ethambutol analogues as potential antimycobacterial agents” (Bioorg Med Chem Lett, 2001)",
  "note": "Calls of active or inactive are those of the source. No cut-off for these calls is given here.",
  "data": [
    {"tested_on": "Mycolicibacterium smegmatis", "test": "Antimycobacterial activity was evaluated against Mycobacterium smegmatis; Active", "format": "functional, organism-based", "values": [
      {"molecule": "CC(C)[C@@H](CO)NCCN[C@H](CO)C(C)C", "Activity": "Active"},
      {"molecule": "CC[C@@H](CO)NCCN[C@@H](CC)CO", "Activity": "Active"},
      {"molecule": "OC[C@H](Cc1ccccc1)NCCN[C@@H](CO)Cc1ccccc1", "Activity": "Active"},
      {"molecule": "CC[C@@H](CO)NCCN[C@H](C)CO", "Activity": "Active"},
      {"molecule": "CC[C@@H](CO)NCCN[C@@H](C)CO", "Activity": "Active"},
      {"molecule": "OC[C@H]1N[C@@H](CSc2ccccc2)C(O)[C@H]1O", "note": "(stereo not given in full)", "Activity": "Active"},
      {"molecule": "CC[C@@H](CO)NCCN1CCC[C@H]1CO", "Activity": "Active"},
      {"molecule": "OC[C@@H]1CCCN1CCN1CCC[C@H]1CO", "Activity": "Active"},
      {"molecule": "CC[C@H](CO)NCCN[C@@H](CC)CO", "Activity": "Active"},
      {"molecule": "CC(C)C[C@@H](CO)NCCN[C@@H](CO)CC(C)C", "Activity": "Active"},
      {"molecule": "OCCNCCNCCO", "Activity": "Active"}
    ]},
    {"tested_on": "Mycolicibacterium smegmatis", "test": "Antimycobacterial activity was evaluated against Mycobacterium smegmatis; Inactive", "format": "functional, organism-based", "values": [
      {"molecule": "O=C(O)CN(CCN(CC(=O)O)CC(=O)O)CC(=O)O", "Activity": "inactive"},
      {"molecule": "O=C(O)CNCCNCC(=O)O", "Activity": "inactive"},
      {"molecule": "COC(=O)[C@H](CO)NCCN[C@@H](CO)C(=O)OC", "Activity": "inactive"},
      {"molecule": "OCCNCCNCCO", "Activity": "inactive"}
    ]}
  ]
}
